Consider two compounds from patent US11821003B2, “Cardiogenic mesoderm formation regulators” (Sanford Burnham Prebys Medical Discovery Institute, priority 2017, dated 2023).

The subject of one test is mESCs. The note with it: cited from earlier work.
The subject of test [1] is cardiomyocytes derived from Id1 overexpressing h9-hESCs. The experiment in a line: Beat rate of cardiomyocytes measured optically with VF2.1 Cl. The format is cell-based, human. To be noted: 100 nM, compared to vehicle. Here is the method: FIG. 3F. Schematic of the workflow for the physiological assessment of cardiomyocytes derived from Id1 overexpressing h9-hESCs using the calcium (Fluo-4) and voltage (VF2.1 Cl)(Miller et al., 2012) sensitive dyes.
Next, experiments were performed to determine whether iMP progenitors are bona fide multipotent cardiovascular progenitors and thus able to differentiate into multiple cardiac lineages including functional cardiomyocytes. To address this question, iMPs were first produced in bulk until day 6 of differentiation for mouse, or day 5 for human. At this point, iMPs could be cryopreserved or used fresh. Spontaneous differentiation potential under basal media conditions without cytokines (FIG. 3A) was assessed by RT-qPCR (FIGS. 3B, 3C) and immunostaining (FIG. 3D and FIGS. 9A, 9B) at day 15 of differentiation. […] Although iMPs are multipotent progenitors, the vast majority of the cells (˜70%) spontaneously differentiate into ACTC1^+ cardiomyocytes in hESCs (FIG. 3E). Next, we assessed whether resulting ACTC1^+ cells show characteristics of functional cardiomyocytes, which include the ability to contract, display intracellular calcium oscillations and action potentials, and respond to hormonal stimuli (Birket et al., 2015; Burridge et al., 2014).

“Also recorded” adds a separate entry of the source.

Turning to `NC(=O)c1ccc(-c2nc(-c3ccc4c(c3)OCO4)c(-c3ccccn3)[nH]2)cc1` [SB431542], the Id1 transcripts result with mESCs is on record as “upregulate Id1 transcripts”.

In the case of `CC(C)NCC(O)c1ccc(O)c(O)c1` (centres unmarked) [isoproterenol], the beat rate entry in test [1] is given as “increased beat rate; also recorded: increase in beating frequency”.
